According to patent publication US12589143B2, “Human anti-PD-L1 peptide vaccines and methods of their use” (priority 2019, dated 2026):
Values joined by “and” are separate entries in the source; they are usually repeats but may differ in a detail not shown here. Equal entries are not always repeated. Where no end group is shown, it is not given here.

System: MVF-PD-L1 peptide immunogen
Assay: Immunogenicity in Balb/c mice, experiment 1 (CT26 WT): ELISA of sera vs each MVF-PD-L1 peptide immunogen
Type: in vivo
Settings: for Immunogenicity (titers) 1′ Conc. 1:: Balb/c mice
Description: Immunogenicity of MVF-PD-L1 B-cell epitopes. New Zealand White rabbits were immunized with 1 mg of each MVF-peptide immunogens dissolved in dd H2O emulsified (1:1) in Montanide ISA 720 vehicle (Seppic) with 333 μg of N-acetylglucosamine-3yl-acetyl-1-alanyl-d-isoglutamine (nor-MDP). Rabbits were boosted with the same doses at 3-week's intervals. Blood was collected via the central auricular artery in rabbits. Blood was collected weekly (1Y+3, 2Y+1, 2Y+2,2Y+3, 3Y+1, 3Y+2 and sera tested for antibody titers by ELISA using the immunogens MVF-PD-L1 peptides. Sera (terminal) from rabbit (3Y+3) immunized with MVF-PD-1 peptide immunogens were tested individually versus the immunogen by ELISA. 200 ng/well peptide were used in duplicates to coat the ELISA plates. Titers are defined as the highest dilution of sera with an absorbance value of 0.2 after subtracting the blank.
FIGS. 5A, 5B, 5C, and 5D show the experimental scheme to test the immunization with PD-L1 in Balb/c mice. […] Balb/c mice 6-8 weeks old, were immunized with MVF-peptide immunogens emulsified in ISA 720 with nor-MDP three times and three weeks apart. Mice were immunized with MVF-PD-L1 vaccine constructs [PD-L1(36-53), PD-L1(50-67), PD-L1(95-112), PD-L1(130-147)] prior to tumor challenge. Blood was collected weekly and sera tested for antibody titers by ELISA. Two weeks after the third immunization (3Y), the mice were engrafted with CT26 WT tumor cells 10^5 per mouse Control mice were treated twice weekly with PBS as negative control and twice weekly with anti-mPD-L1 mAb (10F.9G2) as positive control starting 2 days after tumor challenge. Tumor growths were observed twice weekly and measured by calipers.
Immunogenicity of MVF-PD-L1 peptides in BALB/c mice immunized with various peptide constructs. Sera collected weekly were tittered against each individual MVF-PD-L1 peptide immunogen. The Pink bar refers to titers versus PD-L1 130 and the red bar refers to titers versus PD-1 (92-110).
In order to verify the efficacy of the PD-L1 epitope vaccines in vivo in the CT26 carcinoma cell line, Balb/c mice (10 mice/group) were immunized with 100 μg each of MVF-PD-L1 (36-53), MVF-PD-L1 (50-67), MVF-PD-L1 (95-112) and MVF-PD-L1 (130-147) emulsified with nor-MDP and Montanide 720 (1:1 ratio) SCHEME 1A (FIG. 5A). As detailed in SCHEME 1A-D (FIGS. 5A, 5B, 5C, and 5D), mice were immunized 3 times at 3 weeks intervals. […] All PD-L1 epitopes elicited high titers of PD-L1 anti-peptide antibodies by ELISA. […] We also investigated the combination of PD-1(92-110) with PD-L1-130-147.
For each peptide, vaccine antibodies were raised in New Zealand white rabbits, purchased from Charles River Laboratories (Wilmington, MA, USA). Rabbits were immunized with 1 mg of MVF chimeric peptide emulsified in Montanide ISA 720 (Seppic, Paris, France) and boosted 3 times at three week intervals. For mouse experiments, mice, 6-8 weeks old, were immunized with 0.1 mg of peptide emulsified in ISA720 (1:1 ratio). Mice were boosted with the respective doses at 3-week intervals. Blood was then collected and sera were tested for antibody titers. Sera were collected weekly and peptide vaccine antibodies were purified by affinity chromatography using a protein A/G column and the concentration was measured using Spectrophometer. All experiments were performed in accordance with the U.S. Public Health Service Policy on Humane Care and Use of Laboratory animals and approved by the Ohio State University Institutional Animals Care and Use Committee, detailed in the accepted protocol.
6-8 weeks old BALB/c mice (Charles River, Wilmington, MA) were used as standard animal models. Mouse CT26 colon carcinoma cell line was purchased from American Type Culture Collection Cells and were regularly cultured in RPMI1640 medium containing 10% FBS. CT26/HER2 cells were kindly provided by M. Penichet. Vaccines were dissolved in sterile water and emulsified in Montanide ISA 720 (1:1). […]

For “KLLSLIKGVIVHRLEGVEGPSLYRCMISYGGADYKRITVK (KLLSLIKGVIVHRLEGVEGPSLYRCMISYGGADYKRITVK-NH2) [PD-L1(95)]”, the “Immunogenicity (titers) 1′ Conc. 1:” value (bleed 1Y + 3) was 0, the “Immunogenicity (titers) 1′ Conc. 1:” value (bleed 2Y + 1) was 12800 and the “Immunogenicity (titers) 1′ Conc. 1:” value (bleed 2Y + 2) was 32000. The “Immunogenicity (titers) 1′ Conc. 1:” value (bleed 2Y + 3) was 32000, the “Immunogenicity (titers) 1′ Conc. 1:” value (bleed 3Y + 1) was 32000 and the “Immunogenicity (titers) 1′ Conc. 1:” value (bleed 3Y + 2) was 64000. The “Immunogenicity (titers) 1′ Conc. 1:” value (bleed 3Y + 3) was 32000, the “ELISA absorbance of sera” value (bleed 1Y + 3 (1to100), dilution 100) was 0.165 and 0.150 and the “ELISA absorbance of sera” value (bleed 1Y + 3 (1to100), dilution 200) was 0.088 and 0.078. For the same sequence, the “ELISA absorbance of sera” value (bleed 1Y + 3 (1to100), dilution 400) was 0.040 and 0.036, the “ELISA absorbance of sera” value (bleed 1Y + 3 (1to100), dilution 800) was 0.020 and 0.021 and the “ELISA absorbance of sera” value (bleed 1Y + 3 (1to100), dilution 1,600) was 0.008 and 0.007. For the same sequence, the “ELISA absorbance of sera” value (bleed 1Y + 3 (1to100), dilution 3,200) was 0.006, the “ELISA absorbance of sera” value (bleed 1Y + 3 (1to100), dilution 6,400) was 0.002 and 0.001 and the “ELISA absorbance of sera” value (bleed 2Y + 1 (1to100), dilution 100) was 1.499 and 1.508. For the same sequence, the “ELISA absorbance of sera” value (bleed 2Y + 1 (1to100), dilution 200) was 1.399 and 1.429, the “ELISA absorbance of sera” value (bleed 2Y + 1 (1to100), dilution 400) was 1.232 and 1.283 and the “ELISA absorbance of sera” value (bleed 2Y + 1 (1to100), dilution 800) was 0.988 and 1.067. For the same sequence, the “ELISA absorbance of sera” value (bleed 2Y + 1 (1to100), dilution 1,600) was 0.768 and 0.793, the “ELISA absorbance of sera” value (bleed 2Y + 1 (1to100), dilution 3,200) was 0.508 and 0.560 and the “ELISA absorbance of sera” value (bleed 2Y + 1 (1to100), dilution 6,400) was 0.303 and 0.339. For the same sequence, the “ELISA absorbance of sera” value (bleed 2Y + 1 (1to100), dilution 12,800) was 0.235 and 0.201, the “ELISA absorbance of sera” value (bleed 2Y + 2 (1to1k), dilution row 100 (Table 5C), dilution 100) was 1.553 and 1.522 and the “ELISA absorbance of sera” value (bleed 2Y + 2 (1to1k), dilution row 200 (Table 5C), dilution 200) was 1.327 and 1.281. The “ELISA absorbance of sera” value (bleed 2Y + 2 (1to1k), dilution row 400 (Table 5C), dilution 400) was 1.035 and 0.982, the “ELISA absorbance of sera” value (bleed 2Y + 2 (1to1k), dilution row 800 (Table 5C), dilution 800) was 0.777 and 0.736 and the “ELISA absorbance of sera” value (bleed 2Y + 2 (1to1k), dilution row 1,600 (Table 5C)) was 0.502 and 0.525. For the same sequence, the “ELISA absorbance of sera” value (bleed 2Y + 2 (1to1k), dilution row 3,200 (Table 5C)) was 0.294 and 0.299, the “ELISA absorbance of sera” value (bleed 2Y + 2 (1to1k), dilution row 6,400 (Table 5C)) was 0.171 and 0.156 and the “ELISA absorbance of sera” value (bleed 2Y + 2 (1to1k), dilution row 12,800 (Table 5C)) was 0.085. The “ELISA absorbance of sera” value (bleed 2Y + 3 (1to1k), dilution 100) was 1.256 and 1.224, the “ELISA absorbance of sera” value (bleed 2Y + 3 (1to1k), dilution 200) was 1.126 and 1.121 and the “ELISA absorbance of sera” value (bleed 2Y + 3 (1to1k), dilution 400) was 0.933 and 0.900. For the same sequence, the “ELISA absorbance of sera” value (bleed 2Y + 3 (1to1k), dilution 800) was 0.714 and 0.699, the “ELISA absorbance of sera” value (bleed 2Y + 3 (1to1k), dilution 1,600) was 0.500 and 0.484 and the “ELISA absorbance of sera” value (bleed 2Y + 3 (1to1k), dilution 3,200) was 0.318 and 0.296. The “ELISA absorbance of sera” value (bleed 2Y + 3 (1to1k), dilution 6,400) was 0.150 and 0.154, the “ELISA absorbance of sera” value (bleed 3Y + 1 (1to1k), dilution 100) was 1.597 and 1.466 and the “ELISA absorbance of sera” value (bleed 3Y + 1 (1to1k), dilution 200) was 1.387 and 1.308. The “ELISA absorbance of sera” value (bleed 3Y + 1 (1to1k), dilution 400) was 1.090 and 0.994, the “ELISA absorbance of sera” value (bleed 3Y + 1 (1to1k), dilution 800) was 0.859 and 0.753 and the “ELISA absorbance of sera” value (bleed 3Y + 1 (1to1k), dilution 1,600) was 0.527 and 0.511. For the same sequence, the “ELISA absorbance of sera” value (bleed 3Y + 1 (1to1k), dilution 3,200) was 0.275 and 0.263, the “ELISA absorbance of sera” value (bleed 3Y + 1 (1to1k), dilution 6,400) was 0.154 and 0.081 and the “ELISA absorbance of sera” value (bleed 3Y + 2 (1to1k), dilution 100) was 2.076 and 1.906. The “ELISA absorbance of sera” value (bleed 3Y + 2 (1to1k), dilution 200) was 1.803 and 1.701, the “ELISA absorbance of sera” value (bleed 3Y + 2 (1to1k), dilution 400) was 1.417 and 1.293 and the “ELISA absorbance of sera” value (bleed 3Y + 2 (1to1k), dilution 800) was 1.116 and 0.979. For the same sequence, the “ELISA absorbance of sera” value (bleed 3Y + 2 (1to1k), dilution 1,600) was 0.685 and 0.664, the “ELISA absorbance of sera” value (bleed 3Y + 2 (1to1k), dilution 3,200) was 0.357 and 0.342 and the “ELISA absorbance of sera” value (bleed 3Y + 2 (1to1k), dilution 6,400) was 0.201 and 0.205. The “ELISA absorbance of sera” value (bleed 3Y + 3 (1to1k), dilution 100) was 1.811 and 1.973, the “ELISA absorbance of sera” value (bleed 3Y + 3 (1to1k), dilution 200) was 1.616 and 1.713 and the “ELISA absorbance of sera” value (bleed 3Y + 3 (1to1k), dilution 400) was 1.228 and 1.346. The “ELISA absorbance of sera” value (bleed 3Y + 3 (1to1k), dilution 800) was 0.930 and 1.061, the “ELISA absorbance of sera” value (bleed 3Y + 3 (1to1k), dilution 1,600) was 0.631 and 0.651 and the “ELISA absorbance of sera” value (bleed 3Y + 3 (1to1k), dilution 3,200) was 0.230 and 0.244. For the same sequence, the “ELISA absorbance of sera” value (bleed 3Y + 3 (1to1k), dilution 6,400) was 0.081 and 0.096.
